Experimental data from ChEMBL document CHEMBL5113417, “Discovery of 4-(3-aminopyrrolidinyl)-3-aryl-5-(benzimidazol-2-yl)-pyridines as potent and selective SST5 agonists for the treatment of congenital hyperinsulinism” (Bioorg Med Chem Lett, 2022).
Each block holds one compound with its values, some of them ahead of it.

What was measured:
[1] = target: Somatostatin receptor type 5 (Homo sapiens, UniProt P35346); experiment: Agonist activity at human SST5 expressed in CHO-K1 cells assessed as reduction in NKH477-induced intracellular cAMP level; format: functional, cell-based
[2] = target: Somatostatin receptor type 1 (Homo sapiens, UniProt P30872); experiment: Agonist activity at human SST1; format: functional
[3] = target: Somatostatin receptor type 2 (Homo sapiens, UniProt P30874); experiment: Agonist activity at human SST2; format: functional
[4] = target: Somatostatin receptor type 3 (Homo sapiens, UniProt P32745); experiment: Agonist activity at human SST3; format: functional
[5] = target: Somatostatin receptor type 4 (Homo sapiens, UniProt P31391); experiment: Agonist activity at human SST4; format: functional
[6] = target: Somatostatin receptor type 5 (Rattus norvegicus, UniProt P30938); experiment: Agonist activity at rat SST5; format: functional
[7] = target: Voltage-gated inwardly rectifying potassium channel KCNH2 (Homo sapiens, UniProt Q12809); experiment: Inhibition of hERG by patch clamp assay; format: toxicity
Cytochrome P450 2D6 [8] = target: T1, Cytochrome P450 2D6 (Homo sapiens, UniProt P10635); experiment: Inhibition of CYP2D6 (unknown origin); format: ADME
Cytochrome P450 2D6 [9] = target: T1, Cytochrome P450 2D6; experiment: Inhibition of CYP2D6 (unknown origin) preincubated for 30 mins; format: ADME
Cytochrome P450 3A4 [10] = target: T2, Cytochrome P450 3A4 (Homo sapiens, UniProt P08684); experiment: Inhibition of CYP3A4 (unknown origin); format: ADME
Cytochrome P450 3A4 [11] = target: T2, Cytochrome P450 3A4; experiment: Inhibition of CYP3A4 (unknown origin) preincubated for 30 mins; format: ADME
[12] = Metabolic stability in human liver microsomes assessed as intrinsic clearance; format: ADME, Microsome
[13] = Metabolic stability in rat liver microsomes assessed as intrinsic clearance; format: ADME, Microsome
[14] = Half life in Sprague-Dawley rat at 2.5 mg/kg, iv; format: ADME, organism-based; details: in vivo
[15] = Volume of distribution at steady state in Sprague-Dawley rat at 2.5 mg/kg, iv; format: ADME, organism-based; details: in vivo
[16] = Cmax in Sprague-Dawley rat at 10 mg/kg, po; format: ADME, organism-based; parameters: dose 10 mg/kg, route po; details: in vivo
[17] = AUC(0 to infinity) in Sprague-Dawley rat at 10 mg/kg, po; format: ADME, organism-based; parameters: time infinity, dose 10 mg/kg, route po; details: in vivo
[18] = Oral bioavailability in Sprague-Dawley rat at 10 mg/kg; format: ADME, organism-based; details: in vivo
Cytochrome P450 2D6 [19] = target: T1, Cytochrome P450 2D6; experiment: Time dependent inhibition of CYP2D6 (unknown origin); format: ADME
Cytochrome P450 2D6 [20] = target: T1, Cytochrome P450 2D6; experiment: Time dependent inhibition of CYP2D6 (unknown origin) preincubated for 30 mins; format: ADME
Cytochrome P450 2C9 = Cytochrome P450 2C9 (Homo sapiens, UniProt P11712); experiment: Inhibition of CYP2C9 (unknown origin) by fluorescent assay; format: ADME
Cytochrome P450 2C19 = Cytochrome P450 2C19 (Homo sapiens, UniProt P33261); experiment: Inhibition of CYP2C19 (unknown origin) by fluorescent assay; format: ADME
[21] = Metabolic stability in human liver microsomes assessed as half life; format: ADME, Microsome
[22] = Metabolic stability in rat liver microsomes assessed as half life; format: ADME, Microsome
[23] = Metabolic stability in dog liver microsomes assessed as half life; format: ADME, Canis lupus familiaris, Microsome
[24] = Metabolic stability in monkey liver microsomes assessed as half life; format: ADME, Macaca mulatta, Microsome; details: rhesus monkey
[25] = Metabolic stability in monkey liver microsomes assessed as intrinsic clearance; format: ADME, Macaca mulatta, Microsome; details: rhesus monkey
[26] = Half life in Sprague-Dawley rat at 5 mg/kg, iv; format: ADME, organism-based; details: in vivo
[27] = Half life in Beagle dog at 2.5 mg/kg, iv; format: ADME, organism-based, Canis lupus familiaris; details: in vivo
[28] = Volume of distribution at steady state in Sprague-Dawley rat at 5 mg/kg, iv; format: ADME, organism-based; details: in vivo
[29] = Volume of distribution at steady state in Beagle dog at 2.5 mg/kg, iv; format: ADME, organism-based, Canis lupus familiaris; details: in vivo
[30] = Cmax in Beagle dog at 5 mg/kg, po; format: ADME, organism-based, Canis lupus familiaris; parameters: dose 5 mg/kg, route po; details: in vivo
[31] = AUC(0 to infinity) in Beagle dog at 5 mg/kg, po; format: ADME, organism-based, Canis lupus familiaris; parameters: time infinity, dose 5 mg/kg, route po; details: in vivo
[32] = Oral bioavailability in Beagle dog at 5 mg/kg; format: ADME, organism-based, Canis lupus familiaris; details: in vivo

T2 sequence (P08684 whole entry): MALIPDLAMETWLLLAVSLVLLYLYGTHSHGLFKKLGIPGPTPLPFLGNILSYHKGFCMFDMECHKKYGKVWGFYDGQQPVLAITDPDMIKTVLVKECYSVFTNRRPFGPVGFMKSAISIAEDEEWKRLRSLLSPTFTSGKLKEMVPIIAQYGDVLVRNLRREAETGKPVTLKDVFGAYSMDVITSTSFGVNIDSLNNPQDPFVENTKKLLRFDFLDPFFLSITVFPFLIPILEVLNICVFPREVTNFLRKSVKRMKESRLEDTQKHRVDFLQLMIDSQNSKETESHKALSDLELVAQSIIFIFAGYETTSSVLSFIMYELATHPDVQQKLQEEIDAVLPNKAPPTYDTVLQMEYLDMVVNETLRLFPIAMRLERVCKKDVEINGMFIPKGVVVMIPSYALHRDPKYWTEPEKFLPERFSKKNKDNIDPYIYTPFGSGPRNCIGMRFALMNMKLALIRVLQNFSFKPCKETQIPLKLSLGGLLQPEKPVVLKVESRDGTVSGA
T1 sequence (P10635 whole entry): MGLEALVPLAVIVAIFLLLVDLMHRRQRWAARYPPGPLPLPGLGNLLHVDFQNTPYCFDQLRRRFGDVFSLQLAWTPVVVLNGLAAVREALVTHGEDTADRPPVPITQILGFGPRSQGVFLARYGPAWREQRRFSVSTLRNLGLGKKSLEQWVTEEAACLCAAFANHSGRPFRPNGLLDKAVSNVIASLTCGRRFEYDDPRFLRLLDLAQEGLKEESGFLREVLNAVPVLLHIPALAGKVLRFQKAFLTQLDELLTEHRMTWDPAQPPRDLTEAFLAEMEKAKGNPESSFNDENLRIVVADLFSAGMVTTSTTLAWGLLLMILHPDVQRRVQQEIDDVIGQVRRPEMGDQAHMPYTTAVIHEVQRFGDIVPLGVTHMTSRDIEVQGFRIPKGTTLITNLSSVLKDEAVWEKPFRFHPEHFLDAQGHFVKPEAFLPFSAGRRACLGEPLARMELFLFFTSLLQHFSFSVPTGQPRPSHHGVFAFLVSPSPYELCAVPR
Chain of Somatostatin receptor type 5 (Homo sapiens, UniProt P35346) (P35346 whole entry): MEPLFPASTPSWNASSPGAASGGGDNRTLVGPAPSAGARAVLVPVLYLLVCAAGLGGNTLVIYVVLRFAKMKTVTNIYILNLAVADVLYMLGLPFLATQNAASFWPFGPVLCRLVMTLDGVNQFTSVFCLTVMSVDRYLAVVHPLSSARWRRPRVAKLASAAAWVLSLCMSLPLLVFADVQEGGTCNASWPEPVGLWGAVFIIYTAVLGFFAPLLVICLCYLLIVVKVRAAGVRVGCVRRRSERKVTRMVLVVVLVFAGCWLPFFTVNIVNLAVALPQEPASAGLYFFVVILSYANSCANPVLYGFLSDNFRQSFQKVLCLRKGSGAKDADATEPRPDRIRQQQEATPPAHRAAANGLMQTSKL
Chain of Somatostatin receptor type 2 (P30874 whole entry): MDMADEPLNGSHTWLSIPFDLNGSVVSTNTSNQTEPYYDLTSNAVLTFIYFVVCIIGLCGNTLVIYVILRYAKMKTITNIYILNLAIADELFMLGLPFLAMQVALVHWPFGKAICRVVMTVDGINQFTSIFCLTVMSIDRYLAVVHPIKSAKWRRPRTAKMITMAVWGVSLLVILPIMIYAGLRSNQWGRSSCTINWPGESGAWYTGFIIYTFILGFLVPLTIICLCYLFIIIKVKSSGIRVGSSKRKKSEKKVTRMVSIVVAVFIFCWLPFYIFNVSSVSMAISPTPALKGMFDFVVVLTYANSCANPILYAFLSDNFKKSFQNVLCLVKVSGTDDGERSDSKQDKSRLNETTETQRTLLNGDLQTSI
Chain of Somatostatin receptor type 1 (P30872 whole entry): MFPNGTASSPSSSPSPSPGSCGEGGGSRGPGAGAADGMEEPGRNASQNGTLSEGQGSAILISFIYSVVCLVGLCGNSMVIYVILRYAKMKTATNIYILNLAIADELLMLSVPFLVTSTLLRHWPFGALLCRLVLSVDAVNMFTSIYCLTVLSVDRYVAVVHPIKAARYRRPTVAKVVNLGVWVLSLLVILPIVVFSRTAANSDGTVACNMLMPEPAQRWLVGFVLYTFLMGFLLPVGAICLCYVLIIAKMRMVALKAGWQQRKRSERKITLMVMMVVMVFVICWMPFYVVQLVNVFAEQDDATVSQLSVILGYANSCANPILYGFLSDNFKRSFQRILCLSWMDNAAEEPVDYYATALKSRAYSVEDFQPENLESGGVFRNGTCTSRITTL
Chain of Cytochrome P450 2C9 (P11712 whole entry): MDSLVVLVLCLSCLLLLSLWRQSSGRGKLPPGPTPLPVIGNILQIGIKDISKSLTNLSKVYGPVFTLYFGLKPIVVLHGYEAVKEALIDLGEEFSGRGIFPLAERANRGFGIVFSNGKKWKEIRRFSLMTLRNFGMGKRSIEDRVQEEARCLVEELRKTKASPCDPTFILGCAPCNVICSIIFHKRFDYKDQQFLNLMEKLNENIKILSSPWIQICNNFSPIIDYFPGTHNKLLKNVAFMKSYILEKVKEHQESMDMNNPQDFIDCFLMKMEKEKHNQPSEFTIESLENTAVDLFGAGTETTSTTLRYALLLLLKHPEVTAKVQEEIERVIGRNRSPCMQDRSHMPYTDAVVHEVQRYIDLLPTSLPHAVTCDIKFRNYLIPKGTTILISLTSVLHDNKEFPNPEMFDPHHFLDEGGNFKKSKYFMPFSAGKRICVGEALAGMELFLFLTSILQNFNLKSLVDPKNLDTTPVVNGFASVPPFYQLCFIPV
Chain of Somatostatin receptor type 4 (P31391 whole entry): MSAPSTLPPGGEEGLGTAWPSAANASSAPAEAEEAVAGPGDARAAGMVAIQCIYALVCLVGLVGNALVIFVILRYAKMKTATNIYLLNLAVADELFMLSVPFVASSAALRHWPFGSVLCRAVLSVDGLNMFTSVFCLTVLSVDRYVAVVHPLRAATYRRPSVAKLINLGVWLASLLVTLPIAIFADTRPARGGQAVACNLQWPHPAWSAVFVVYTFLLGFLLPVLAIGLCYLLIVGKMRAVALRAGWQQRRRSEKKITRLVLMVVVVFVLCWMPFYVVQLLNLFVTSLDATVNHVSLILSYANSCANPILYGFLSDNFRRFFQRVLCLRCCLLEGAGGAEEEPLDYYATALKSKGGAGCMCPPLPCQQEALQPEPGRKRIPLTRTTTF
Chain of Somatostatin receptor type 3 (P32745 whole entry): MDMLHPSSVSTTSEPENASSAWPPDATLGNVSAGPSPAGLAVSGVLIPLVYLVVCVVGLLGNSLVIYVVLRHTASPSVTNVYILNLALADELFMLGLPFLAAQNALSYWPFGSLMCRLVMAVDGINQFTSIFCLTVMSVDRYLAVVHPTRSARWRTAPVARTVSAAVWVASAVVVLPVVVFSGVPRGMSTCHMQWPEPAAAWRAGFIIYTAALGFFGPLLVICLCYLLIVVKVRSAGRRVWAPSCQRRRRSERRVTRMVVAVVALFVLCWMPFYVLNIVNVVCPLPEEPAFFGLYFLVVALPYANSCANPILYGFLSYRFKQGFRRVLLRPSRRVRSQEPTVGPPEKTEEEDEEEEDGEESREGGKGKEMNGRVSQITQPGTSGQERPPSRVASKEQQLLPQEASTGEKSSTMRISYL
Chain of Voltage-gated inwardly rectifying potassium channel KCNH2 (Q12809 whole entry): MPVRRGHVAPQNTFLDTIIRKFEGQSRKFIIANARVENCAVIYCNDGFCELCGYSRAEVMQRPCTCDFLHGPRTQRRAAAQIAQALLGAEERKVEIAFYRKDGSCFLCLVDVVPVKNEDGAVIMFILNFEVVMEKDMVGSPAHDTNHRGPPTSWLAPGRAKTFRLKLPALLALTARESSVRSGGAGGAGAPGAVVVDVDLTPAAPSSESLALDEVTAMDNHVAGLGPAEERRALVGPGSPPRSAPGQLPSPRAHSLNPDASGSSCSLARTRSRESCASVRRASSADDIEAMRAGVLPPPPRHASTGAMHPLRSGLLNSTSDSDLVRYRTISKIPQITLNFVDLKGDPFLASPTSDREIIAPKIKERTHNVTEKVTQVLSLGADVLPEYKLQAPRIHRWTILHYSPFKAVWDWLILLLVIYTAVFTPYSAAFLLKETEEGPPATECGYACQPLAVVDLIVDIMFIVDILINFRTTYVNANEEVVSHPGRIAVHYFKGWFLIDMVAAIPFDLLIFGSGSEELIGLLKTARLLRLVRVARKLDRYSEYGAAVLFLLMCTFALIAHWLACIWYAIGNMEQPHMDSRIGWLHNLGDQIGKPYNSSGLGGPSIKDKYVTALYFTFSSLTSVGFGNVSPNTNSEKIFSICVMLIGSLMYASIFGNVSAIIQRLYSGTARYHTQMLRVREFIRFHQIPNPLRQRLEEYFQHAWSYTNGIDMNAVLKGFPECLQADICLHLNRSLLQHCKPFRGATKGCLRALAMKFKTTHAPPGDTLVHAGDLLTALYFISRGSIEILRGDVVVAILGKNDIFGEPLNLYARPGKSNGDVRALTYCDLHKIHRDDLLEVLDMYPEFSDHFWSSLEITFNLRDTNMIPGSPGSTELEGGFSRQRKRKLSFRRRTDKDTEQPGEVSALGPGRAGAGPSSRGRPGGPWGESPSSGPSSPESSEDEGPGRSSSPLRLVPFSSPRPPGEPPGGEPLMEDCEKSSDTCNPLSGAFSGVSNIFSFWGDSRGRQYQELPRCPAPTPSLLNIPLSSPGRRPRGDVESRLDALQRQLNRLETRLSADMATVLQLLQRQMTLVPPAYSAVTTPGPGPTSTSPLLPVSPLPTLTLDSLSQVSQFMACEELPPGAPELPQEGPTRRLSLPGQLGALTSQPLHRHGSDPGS
Chain of Somatostatin receptor type 5 (Rattus norvegicus, UniProt P30938) (P30938 whole entry, looked up): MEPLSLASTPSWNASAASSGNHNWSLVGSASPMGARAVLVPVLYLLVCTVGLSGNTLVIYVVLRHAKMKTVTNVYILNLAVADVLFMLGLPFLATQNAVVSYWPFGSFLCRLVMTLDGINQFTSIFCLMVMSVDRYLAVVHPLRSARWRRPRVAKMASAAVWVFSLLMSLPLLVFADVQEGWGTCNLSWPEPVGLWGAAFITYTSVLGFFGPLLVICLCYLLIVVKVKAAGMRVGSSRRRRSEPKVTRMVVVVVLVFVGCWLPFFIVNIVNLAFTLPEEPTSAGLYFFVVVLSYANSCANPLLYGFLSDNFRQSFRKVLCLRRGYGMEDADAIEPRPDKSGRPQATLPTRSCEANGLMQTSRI

SMILES: NCC1CN(c2c(-c3cccc(Cl)c3)cncc2-c2nc3c(F)cc(F)cc3[nH]2)C1
EC50 [1]: 0.36 nM

SMILES: Cc1ccc(F)c2[nH]c(-c3cncc(-c4cc(F)cc(C#N)c4)c3N3CC[C@H](N)C3)nc12
EC50 [1]: 0.23 nM
EC50 [2]: > 1000 nM
pEC50 [2]: < 6
EC50 ([3]; read-out: pEC50 (converted)): 251 nM
EC50 [4]: 10 nM
EC50 [5]: 3.98 nM
EC50 [6]: 0.31 nM
IC50 [7]: 280 nM
IC50 (Cytochrome P450 2D6 [8]): 5300 nM
IC50 (Cytochrome P450 2D6 [9]): 4000 nM
IC50 (Cytochrome P450 3A4 [10]): > 10000 nM
IC50 (Cytochrome P450 3A4 [11]): > 10000 nM

CLH [12]: 10 mL/min/g
CLH [13]: 14 mL/min/g
t1/2 [14]: 7.1 min
Vdss [15]: 22 L/kg
Cmax [16]: 181 ng/mL
AUC(0-inf) [17]: 2480 ng·h/mL
bioavailability [18]: 74%
IC50 (Cytochrome P450 2D6 [19]): 400 nM
IC50 (Cytochrome P450 2D6 [20]): 90 nM
SMILES: N[C@H]1CCN(c2c(-c3cc(F)cc(Cl)c3)cncc2-c2nc3c(F)cccc3[nH]2)C1

SMILES: N#Cc1cc(-c2cncc(-c3nc4c(F)cccc4[nH]3)c2N2CC[C@H](N)C2)ccc1F
EC50 [1]: 0.62 nM

SMILES: CC1(N)CCN(c2c(-c3cccc(C#N)c3)cncc2-c2nc3c(F)cccc3[nH]2)C1 (stereo not drawn)
EC50 [1]: 0.071 nM

SMILES: Cc1cccc(-c2cncc(-c3nc4c(F)cc(F)cc4[nH]3)c2N2CC(CN)C2)c1
EC50 [1]: 2.3 nM

EC50 ([3]; read-out: EC50): > 1000 nM
SMILES: Cc1cc(F)cc(-c2cncc(-c3nc4cc(F)ccc4[nH]3)c2N2CC(CN)C2)c1

SMILES: N#Cc1cccc(-c2cncc(-c3nc4c(F)cc(F)cc4[nH]3)c2N2CC(CN)C2)c1
EC50 [1]: 2.6 nM

SMILES: Cc1cc(F)cc(-c2cncc(-c3nc4c(F)cc(F)cc4[nH]3)c2N2CC(C)(CN)C2)c1
EC50 [1]: 2.3 nM

SMILES: Cc1cc(F)cc(-c2cncc(-c3nc4c(F)cc(F)cc4[nH]3)c2N2CC(CN)C2)c1
EC50 [1]: 2.2 nM

EC50 [1]: 6.1 nM
SMILES: NCC1CN(c2c(-c3cccc(F)c3)cncc2-c2nc3c(F)cc(F)cc3[nH]2)C1

SMILES: Cc1cc(F)cc(-c2cncc(-c3nc4c(C#N)cccc4[nH]3)c2N2CC(CN)C2)c1
EC50 [1]: 19 nM

SMILES: CC(N)C1CN(c2c(-c3cc(F)cc(C(F)(F)F)c3)cncc2-c2nc3c(F)cc(F)cc3[nH]2)C1 (stereo not drawn)
EC50 [1]: 0.27 nM

SMILES: N#Cc1ccc(-c2cncc(-c3nc4c(F)cccc4[nH]3)c2N2CC[C@H](N)C2)cc1F
EC50 [1]: 45 nM

SMILES: Cc1cc(F)cc(-c2cncc(-c3nc4c(Cl)cccc4[nH]3)c2N2CC(CN)C2)c1
EC50 [1]: 1.2 nM

CLH [12]: 2 mL/min/g
CLH [13]: 2 mL/min/g
Cmax [16]: 78 ng/mL
AUC(0-inf) [17]: 951 ng·h/mL
bioavailability [18]: 33%
IC50 (Cytochrome P450 2C9): > 10000 nM
IC50 (Cytochrome P450 2C19): > 10000 nM
IC50 (Cytochrome P450 2D6 [8]): 10000 nM
IC50 (Cytochrome P450 2D6 [9]): 7500 nM
IC50 (Cytochrome P450 3A4 [10]): > 10000 nM
IC50 (Cytochrome P450 3A4 [11]): > 10000 nM
half-life [21]: > 693 min
half-life [22]: > 693 min
CLH [25]: 94.3 mL/min/g
t1/2 [27]: 16.9 min
Vdss [28]: 17 L/kg
Vdss [29]: 12.9 L/kg
Cmax [30]: 324 ng/mL
AUC(0-inf) [31]: 4660 ng·h/mL
bioavailability [32]: 55%
SMILES: Cc1cccc2[nH]c(-c3cncc(-c4cc(F)cc(C#N)c4)c3N3CC[C@H](N)C3)nc12

SMILES: N#Cc1cccc(-c2cncc(-c3nc4c(F)cccc4[nH]3)c2N2CCC(N)(CO)C2)c1 (stereo not drawn)
EC50 [1]: 1 nM

SMILES: Cc1c(F)ccc2[nH]c(-c3cncc(-c4cc(F)cc(C#N)c4)c3N3CC[C@H](N)C3)nc12
EC50 [1]: 0.65 nM

SMILES: NCC1CN(c2c(-c3nc4c(F)cc(F)cc4[nH]3)cncc2-c2ccccc2F)C1
EC50 [1]: 400 nM

SMILES: N#Cc1cccc(-c2cncc(-c3nc4c(F)cccc4[nH]3)c2N2CC[C@H](N)C2)c1
EC50 [1]: 0.55 nM

SMILES: Cc1cc(F)cc2[nH]c(-c3cncc(-c4cc(F)cc(C#N)c4)c3N3CC[C@H](N)C3)nc12
EC50 [1]: 2.1 nM

SMILES: Cc1cccc2c1nc(-c1cncc(-c3cc(F)cc(C#N)c3)c1N1CC[C@H](N)C1)n2C
EC50 [1]: 4.2 nM

SMILES: C[C@]1(N)CCN(c2c(-c3cccc(C#N)c3)cncc2-c2nc3c(F)cccc3[nH]2)C1
EC50 [1]: 0.047 nM

SMILES: N#Cc1cccc(-c2cncc(-c3nc4c(F)cccc4[nH]3)c2N2CC(N)C(C(F)(F)F)C2)c1 (mixture of isomers)
EC50 [1]: 42 nM

SMILES: N#Cc1cccc(-c2cncc(-c3nc4c(F)cccc4[nH]3)c2N2C[C@@H](N)[C@H](O)C2)c1 (racemic)
EC50 [1]: 46 nM
